The values that follow come from patent publication US20080200442A1, “Compositions and Methods for Treating, Reducing, Ameliorating, or Preventing Infections of the Ear or Upper Respiratory Tract” (priority 2007, published 2008).

What all share (assay type): cell-based
One experiment concerns Propionibacterium acnes. Kind of experiment: In vitro anti-bacterial activity (MIC90), ophthalmologic clinical bacteria isolates. The settings on record: Cutibacterium acnes, Gram-positive.
In experiment [1] the test system is Gentamycin-resistant Pseudomonas aeruginosa. The description is as above.
Another experiment concerns Streptococcus pneumoniae. Described as above. The settings on record: Gram-positive.
A further experiment has as its system Staphylococcus aureus. Described as above. The settings on record: Gram-positive.
In another experiment the test system is Pseudomonas aeruginosa. The description is as above. As to conditions: Gram-negative.
Experiment [2] concerns Penicillin-resistant Streptococcus pneumoniae. Described as above.
A further experiment deals with Corynebacterium species. The description is as above. As to conditions: Gram-positive.
The test system of another experiment is Haemophilus influenzae. The description is as above. The settings on record: Gram-negative.
A further experiment concerns Moraxella species. The experiment is described as above. As to conditions: Gram-negative.
Experiment [3] has as its system Ofloxacin-resistant Staphylococcus aureus. The experiment is described as above.
Experiment [4] has as its system Coagulase-negative Staphylococcus. The description is as above. As to conditions: Gram-positive.
In experiment [5] the test system is Gentamycin-resistant Staphylococcus aureus. Described as above.
Experiment [6] relates to Bacteroides thetaiotaomicron (GAI 0659). Kind of experiment: In vitro anti-bacterial activity (MIC90), anaerobic reference bacteria. As to conditions: Bacteroides thetaiotaomicron.
Experiment [7] relates to Salmonella typhimurium (TD). Kind of experiment: In vitro anti-bacterial activity (MIC90), Gram-negative reference strains. As to the method:
Anti-bacterial activity of the compound having Formula III was tested against several Gram-negative reference bacteria strains and compared to the anti-bacterial activity of three commercially available antibiotics (nadifloxacin, ofloxacin, and sparfloxacin).

Experiment [8] has as its system Propionibacterium acnes (GAI 5419). Kind of experiment: In vitro anti-bacterial activity (MIC90), anaerobic reference bacteria. The settings on record: Cutibacterium acnes.
In experiment [9] the test system is Staphylococcus aureus (Smith). Kind of experiment: In vitro anti-bacterial activity (MIC90), Gram-positive reference strains. How it is done:
(§1) Anti-bacterial activity of the compound having Formula III was tested against several Gram-negative reference bacteria strains and compared to the anti-bacterial activity of three commercially available antibiotics (nadifloxacin, ofloxacin, and sparfloxacin). The results are shown in Table 2 as MIC90 values (minimum concentration of the active compound required to inhibit ninety percent of the growth of a specified pathogen, in μg/ml). Anti-bacterial activity of the compound having Formula III was tested against several Gram-positive reference bacteria strains and compared to the anti-bacterial activity of three commercially available antibiotics (nadifloxacin, ofloxacin, and sparfloxacin).

Experiment [10] relates to Streptococcus pneniae (IID 554). The experiment is described as above. The settings on record: IID554. How it is done:
as §1

Experiment [11] relates to Sarcina lutea (ATCC 9341). The description is as above. The settings on record: Micrococcus luteus, ATCC9341. As to the method: as §1
Experiment [12] deals with Staphylococcus aureus (FDA 209P). The description is as above. As to conditions: FDA209P. How it is done: as §1
Experiment [13] has as its system Streptococcus pyogenes (Cook). The description is as above. How it is done:
as §1

Experiment [14] relates to Staphylococcus epidermidis (ATCC 12228). The description is as above. As to conditions: ATCC12228. As to the method: as §1
For experiment [15], the system named is Streptococcus pneumoniae (IID 553). The experiment is described as above. The settings on record: IID553. How it is done:
as §1

The test system of experiment [16] is Bacillis subtilis (ATCC 6633). The experiment is described as above. How it is done:
as §1

Experiment [17] relates to Streptococcus faecalis (IFO 12964). The description is as above. The settings on record: Enterococcus faecalis, IFO12964. As to the method: as §1
The test system of experiment [18] is Streptococcus faecalis (ATCC 29212). The description is as above. The settings on record: Enterococcus faecalis, ATCC29212. How it is done:
as §1

Experiment [19] deals with Streptococcus pyogenes (IID 698). The description is as above. As to conditions: IID698. How it is done: as §1
For experiment [20], the system named is Staphylococcus aureus (ATCC 25933). The experiment is described as above. As to conditions: ATCC25933. How it is done: as §1
For experiment [21], the system named is Staphylococcus aureus (ATCC 33593). Kind of experiment: In vitro anti-bacterial activity (MIC90), methicillin-resistant Staphylococcus aureus isolates. As to conditions: ATCC33593; methicillin-resistant Staphylococcus aureus (ATCC 33593). As to the method:
(§2) Anti-bacterial activity of the compound having Formula III was tested against several Gram-negative reference bacteria strains and compared to the anti-bacterial activity of three commercially available antibiotics (nadifloxacin, ofloxacin, and sparfloxacin). The results are shown in Table 2 as MIC90 values (minimum concentration of the active compound required to inhibit ninety percent of the growth of a specified pathogen, in μg/ml).
(§3) Anti-bacterial activity of the compound having Formula III was tested against some methicillin-resistant Staphylococcus aureus bacteria strains and compared to the anti-bacterial activity of three commercially available antibiotics (nadifloxacin, ofloxacin, and sparfloxacin).

In experiment [22] the test system is Staphylococcus aureus (No. 395). The description is as above. As to conditions: methicillin-resistant Staphylococcus aureus (No. 395). As to the method:
as §2, §3

Experiment [23] relates to Staphylococcus aureus (No. 421). Described as above. As to conditions: methicillin-resistant Staphylococcus aureus (No. 421). How it is done:
as §2, §3

The test system of experiment [24] is Staphylococcus aureus (ATCC 33592). The description is as above. The settings on record: ATCC33592; methicillin-resistant Staphylococcus aureus (ATCC 33592). How it is done:
as §2, §3

For experiment [25], the system named is Staphylococcus aureus (ATCC 33591). The description is as above. The settings on record: ATCC33591; methicillin-resistant Staphylococcus aureus (ATCC 33591). How it is done: as §2, §3
Experiment [26] has as its system Staphylococcus aureus (No. 419). Described as above. As to conditions: methicillin-resistant Staphylococcus aureus (No. 419). How it is done: as §2, §3
For experiment [27], the system named is Staphylococcus aureus (No. 420). The experiment is described as above. As to conditions: methicillin-resistant Staphylococcus aureus (No. 420). As to the method: as §2, §3
The subject of experiment [28] is Staphylococcus aureus (No. 415). The description is as above. The settings on record: methicillin-resistant Staphylococcus aureus (No. 415). As to the method:
as §2, §3

In experiment [29] the test system is Peptostreptococcus magnum (GAI 0664). The experiment in a line: In vitro anti-bacterial activity (MIC90), anaerobic reference bacteria.
Experiment [30] concerns Propionibacterium acnes (ATCC 6919). The description is as above. The settings on record: Cutibacterium acnes, ATCC6919.
In experiment [31] the test system is Veillonella parvula (GAI 5602). The description is as above.
Experiment [32] concerns Clostridium perfringens (KZ 210). The experiment in a line: microbe, parasite or virus in culture.
Experiment [33] relates to Propionibacterium acnes (ATCC 11828). The experiment in a line: In vitro anti-bacterial activity (MIC90), anaerobic reference bacteria. As to conditions: Cutibacterium acnes, ATCC11828.
For experiment [34], the system named is Bacteroides vulgatus (GAI 0673). Described as above. As to conditions: Phocaeicola vulgatus.
Experiment [35] concerns Peptostreptococcus micros (GIFU 7824). The description is as above. The settings on record: Parvimonas micra.
The test system of experiment [36] is Bacteroides fragillis (GAI 0675). The experiment is described as above.

Structures are written as SMILES. Values after ≈ are worked out from the molar mass of the structure shown.

`CCn1cc(C(=O)O)c(=O)c2cc(F)c(N3CCNCC3)cc21` [Norfloxacin]: the MIC90 against Propionibacterium acnes was 4 µg/mL (≈ 12.5 µM); in [1], 128 µg/mL (≈ 401 µM); against Streptococcus pneumoniae, 8 µg/mL (≈ 25.1 µM); with Staphylococcus aureus it was > 128 µg/mL; in the experiment with Pseudomonas aeruginosa, 4 µg/mL (≈ 12.5 µM); in experiment [2], 8 µg/mL (≈ 25.1 µM). In addition, the MIC90 with Corynebacterium species was 16 µg/mL (≈ 50.1 µM); in the experiment with Haemophilus influenzae it was ≤ 0.06 µg/mL; against Moraxella species it was 0.25 µg/mL (≈ 0.783 µM); in experiment [3], > 128 µg/mL; in experiment [4] it was 128 µg/mL (≈ 401 µM); in experiment [5], 128 µg/mL (≈ 401 µM).

As for `C[C@@H]1CN(c2c(F)c(N)c3c(=O)c(C(=O)O)cn(C4CC4)c3c2F)C[C@H](C)N1` [Sparfloxacin], the MIC90 in experiment [6] was found to be 0.78 µg/mL (≈ 1.99 µM); in experiment [7], 0.012 mμg/mL; in experiment [8], 0.39 µg/mL (≈ 0.994 µM); in [9], 0.05 µg/mL (≈ 0.127 µM); in experiment [10], 0.39 µg/mL (≈ 0.994 µM); in experiment [11], 1.56 µg/mL (≈ 3.98 µM). The MIC90 was 0.024 µg/mL (≈ 0.0612 µM) in experiment [12]; 0.39 µg/mL (≈ 0.994 µM) in [13]; 0.2 µg/mL (≈ 0.51 µM) in [14]; 0.39 µg/mL (≈ 0.994 µM) in [15]; 0.024 µg/mL (≈ 0.0612 µM) in [16]; 0.78 µg/mL (≈ 1.99 µM) in experiment [17]. Also, the MIC90 was 0.39 µg/mL (≈ 0.994 µM) in experiment [18]; 0.2 µg/mL (≈ 0.51 µM) in [19]; 0.1 µg/mL (≈ 0.255 µM) in [20]; 0.024 µg/mL (≈ 0.0612 µM) in experiment [21]; 0.05 µg/mL (≈ 0.127 µM) in experiment [22]; 0.39 µg/mL (≈ 0.994 µM) in [23]. Moreover, the MIC90 in experiment [24] worked out at 0.1 µg/mL (≈ 0.255 µM); in experiment [25] it was 0.024 µg/mL (≈ 0.0612 µM); in experiment [26], 1.56 µg/mL (≈ 3.98 µM); in experiment [27] it was 0.78 µg/mL (≈ 1.99 µM); in experiment [28] it was 0.2 µg/mL (≈ 0.51 µM); in experiment [29] it was 0.1 µg/mL (≈ 0.255 µM). For the same compound, the MIC90 in [30] was determined as 0.39 µg/mL (≈ 0.994 µM); in [31], 0.2 µg/mL (≈ 0.51 µM); in experiment [32], 0.39 µg/mL (≈ 0.994 µM); in [33], 0.78 µg/mL (≈ 1.99 µM); in [34] it was 0.78 µg/mL (≈ 1.99 µM); in [35] it was 0.78 µg/mL (≈ 1.99 µM). In [36], this compound registered an MIC90 of 0.78 µg/mL (≈ 1.99 µM).
